Target: T1, Human serum albumin (HSA) (Homo sapiens, UniProt P02768)
T1 construct: gene ALB; commercial native serum albumin (Sigma), essentially fatty acid free and globulin free; monomer
Assay: isothermal titration calorimetry, single set of identical sites
Assay type: binding
Settings: read-out: Ka[M^-1] / ITC ^a (converted)
From the text: isothermal titration calorimetry, single set of identical sites on Human serum albumin (HSA)

T1 sequence (P02768 25-609): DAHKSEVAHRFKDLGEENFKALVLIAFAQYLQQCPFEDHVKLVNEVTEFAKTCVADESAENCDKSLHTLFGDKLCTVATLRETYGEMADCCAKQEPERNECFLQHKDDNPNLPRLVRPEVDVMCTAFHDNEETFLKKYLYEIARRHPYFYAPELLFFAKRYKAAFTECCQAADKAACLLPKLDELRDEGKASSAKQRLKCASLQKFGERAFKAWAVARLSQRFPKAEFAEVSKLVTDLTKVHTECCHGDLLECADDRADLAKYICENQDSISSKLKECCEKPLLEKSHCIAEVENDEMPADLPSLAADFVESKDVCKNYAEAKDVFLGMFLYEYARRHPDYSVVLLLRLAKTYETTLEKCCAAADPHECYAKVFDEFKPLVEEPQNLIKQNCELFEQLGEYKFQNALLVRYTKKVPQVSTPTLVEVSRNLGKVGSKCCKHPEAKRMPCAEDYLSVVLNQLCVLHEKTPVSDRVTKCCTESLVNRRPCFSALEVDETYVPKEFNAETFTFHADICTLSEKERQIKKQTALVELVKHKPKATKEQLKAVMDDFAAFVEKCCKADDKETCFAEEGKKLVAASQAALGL

## CN1CC(=O)NC1=N [creatinine, 2-Amino-1-methyl-5H-imidazol-4-one]
  Kd: 11.2 µM

From paper PMC3046181, “Elimination of Endogenous Toxin, Creatinine from Blood Plasma Depends on Albumin Conformation: Site Specific Uremic Toxicity & Impaired Drug Binding” (PLoS ONE, 2011)
